From patent EP0513000B1, “MRI IMAGE ENHANCEMENT OF BONE AND RELATED TISSUE USING COMPLEXES OF PARAMAGNETIC CATIONS AND POLYPHOSPHONATE LIGANDS” (CONCAT LTD., priority 1989, dated 1991)

Experiments:
[1] = Relative equilibrium constant measurements (competition with EHPG for Fe(III)); type: physicochemical; details: 0.25M phosphate buffer at pH 7.2, heated overnight at 100°C, TLC and colour
Experimental: The highly colored Fe(III) complex of EHPG (used for comparison in part E of this example) was dissolved in 0.25 M phosphate buffer at pH 7.2, and an equimolar quantity of N,N',N''-tris(dihydroxyphosphorylmethyl)-1,4,7-triazacyclononane was added. The solution was heated overnight at 100°C.
The reverse experiment was also performed. The Fe(III) complex of N,N',N''-tris(dihydroxyphosphorylmethyl)-1,4,7-triazacyclononane was thus dissolved in 0.25M phosphate buffer at pH 7.2, and an equimolar quantity of EHPG was added. The solution was heated overnight at 100°C.

[2] = Proton longitudinal relaxivity (1/τ1) measurements; type: physicochemical; details: 20 MHz, 0.1 M phosphate buffer at pH 7.2
Experimental: Measurements of proton longitudinal relaxivity (1/τ1) were performed on some of the test species listed above, and compared with those obtained using the following complexes outside the scope of this invention: (i) Gd(III) with diethylenetriamine pentaacetic acid (DTPA), and (ii) Fe(III) with N,N'-ethylenebis[(2-hydroxyphenyl)-glycinate] (EHPG). All measurements were obtained using a Bruckner PC/20 Minispec device operating at 20 MHz. All samples were dissolved in 0.1 M phosphate buffer at pH 7.2.

Water solubility = type: physicochemical; details: read-out: soluble in water at concentrations
mice = test: Toxicity after intravenous administration to mice, two-week observation; type: in vivo; details: for Survived?: mice, intravenous, alive at end of two-week period
Experimental: Physiological salts of the various ligand/metal cation complexes described herein were administered intravenously to mice. […] The mice were considered to have "survived" administration of each agent if they were alive at the end of the two-week period.

[3] = Whole body clearance of radioisotopically labeled analogs (whole body counting); type: in vivo; details: mice, intravenous, radioisotope analog
Experimental: Radioisotopically labeled analogs of test species selected from those listed above were synthesized, using radioisotopes of Fe(III) (iron-59), Cr(III) (chromium-51) and Gd(III) (gadolinium-153), and employing the general synthesis procedures described above. The resulting complexes were subjected to radiochromatography to insure acceptable radiopurity and identity with the parent complexes. They were then administered intravenously to mice in order to measure in vivo distribution and whole body clearance.
(§1) The location of the test species in the mice's bodies and the rate at which the test species were cleared from the mice's bodies after administration were determined by radioassay of tissues and whole body counting, both performed by conventional gamma ray counting techniques. Concentration of activity in tissues was determined as activity per gram of tissue, and whole body counts were expressed as the percentage of whole body activity at a given time with respect to whole body activity immediately after injection. The results were as follows: • 1. Radioisotopes of Test Species A and B. In vivo distribution. […] By measurements taken one hour after administration, the ratio of the concentration of the test species in bone to that in whole blood was generally over 25:1, while the ratio of their concentration in kidney to that in blood was generally over 10:1. Even after 24 hours, when less than 5% of the administered dose remained in the body (see below), a high ratio of concentration of the test species in bone and kidney to that in blood was maintained. […] Whole Body Clearance. […] Radioisotope of Test species C. In vivo distribution. One hour after administration, the measured bone-to-blood concentration ratio was greater than 4.5:1, and the measured kidney-to-blood ratio was greater than 5.5:1. […] Whole Body Clearance. Within 24 hours of administration, over 95% of the tent species had been cleared from the body. • 3. Radioisotope of Test Species D. In vivo distribution. One hour after administration, the measured bone-to-blood concentration ratio was greater than 6:1, and the measured kidney-to-blood ratio was greater than 10:1. […] Whole Body Clearance.

[4] = In vivo distribution of radioisotopically labeled analogs (radioassay of tissues); design: species or system mice; details: radioisotope analog; for concentration of agent in brain: within the first hour
Experimental: as §1, with “The resulting complexes were subjected to radiochromatography to insure acceptable radiopurity and identity with the parent complexes. They were then administered intravenously to mice in order to measure in vivo distribution and whole body clearance. The location” for “The location”

[5] = Stability: TLC before and after heating; type: physicochemical; details: heating at 100°C for two hours
Experimental: TLC was performed on test species A and D, both before and after heating at 100°C for two hours.

[6] = within 24 hours of administration

O=P(O)(O)CN1CCN(CP(=O)(O)O)CCN(CP(=O)(O)O)CC1 [N,N',N''-tris(dihydroxyphosphorylmethyl)-1,4,7-triazacyclononane]
species present after equimolar ligand was added to Fe(III) complex of EHPG [1]: TLC showed only the presence of the Fe(III) N,N',N''-tris(dihydroxyphosphorylmethyl)-1,4,7-triazacyclononane complex

O=P(O)(O)CN1CCN(CP(=O)(O)O)CCN(CP(=O)(O)O)CC1 [Test Species A, N,N',N''-tris(dihydroxyphosphorylmethyl)-1,4,7-triazacyclononane]
proton longitudinal relaxivity relative to the Fe(III) complex of EHPG (times greater) [2]: two to three | solubility (Water solubility): > 500 mg/mL | Survived? (mice; Dose 11.8mM/kg, Rate 0.4mM/sec/kg): yes | toxicity observed, versus the single, chromatographically distinct product (mice; preparations made by alternate complexation procedures, containing multiple forms of the complex by TLC): substantially greater | administered dose remained in the body ([3]; after 24 hours): less than 5% | cleared from the body [3, 6]: over 95% | route of whole body clearance [3, 6]: almost exclusively through the urine | accumulation of activity in fractured tibia versus contralateral normal tibia ([4]; mice with a tibia broken two to four weeks prior to the study): significantly greater accumulation of activity | ratio of concentration in bone and kidney to that in blood ([4]; mice, intravenous, after 24 hours): high ratio | activity in the brain ([4]; mice, intravenous, at all times following administration): very low activity | concentration of radioactivity in bone and kidneys ([4]; mice, intravenous, within 2 minutes following administration): evidence of concentration of radioactivity in bone and kidneys | TLC before and after heating [5]: A single, chromatographically distinct spot which did not vary as a result of the heating

O=P(O)(O)CN1CCN(CP(=O)(O)O)CCN(CP(=O)(O)O)CC1 [Test Species B, N,N',N''-tris(dihydroxyphosphorylmethyl)-1,4,7-triazacyclononane]
Survived? (mice; Dose 9.8mM/kg, Rate 0.7mM/min/kg): yes

O=P(O)(O)CCN1CCN(CCP(=O)(O)O)CCN(CCP(=O)(O)O)CC1 [Test Species C, N,N',N''-tris(dihydroxyphosphorylethyl)-1,4,7-triazacyclononane]
Survived? (mice; Dose 10.0mM/kg, Rate 2.0mM/min/kg): yes | cleared from the body [3, 6]: over 95% | concentration of agent in brain ([4]; mice, intravenous): very low concentration

O=P(O)(O)CN1CCN(CP(=O)(O)O)CCN(CP(=O)(O)O)CC1 [Test Species D, N,N',N''-tris(dihydroxyphosphorylmethyl)-1,4,7-triazacyclononane]
Survived? (mice; Dose 2.9mM/kg, Rate 0.5mM/sec/kg): yes | concentration of agent in brain ([4]; mice, intravenous): very low concentration

O=P(O)(O)CN1CCN(CP(=O)(O)O)CCN(CP(=O)(O)O)CC1 [Test Species E, N,N',N''-tris(dihydroxyphosphorylmethyl)-1,4,7-triazacyclononane]
Survived? (mice; Dose 2.9mM/kg, Rate 1.1mM/min/kg): yes

O=P(O)(O)CN1CCN(CP(=O)(O)O)CCN(CP(=O)(O)O)CC1 [Test Species F, N,N',N''-tris(dihydroxyphosphorylmethyl)-1,4,7-triazacyclononane]
Survived? (mice; Dose 8.0mM/kg, Rate 2.6mM/min/kg): yes

O=P(O)(O)CN1CCN(CP(=O)(O)O)CCN(CP(=O)(O)O)CC1 [Test Species G, N,N',N''-tris(dihydroxyphosphorylmethyl)-1,4,7-triazacyclononane]
Survived? (mice; Dose 3.1mM/kg, Rate 0.8mM/min/kg): yes

Fe(III) complex of N,N',N''-tris(dihydroxyphosphorylmethyl)-1,4,7-triazacyclononane
species present after equimolar EHPG was added to the Fe(III) complex (reverse experiment) [1]: TLC showed only the presence of the Fe(III) N,N',N''-tris(dihydroxyphosphorylmethyl)-1,4,7-triazacyclononane complex
